We go through 33 compounds from ChEMBL document CHEMBL3244296, “3-Aryl- and 3-hydroxy-3-aryloctahydropyrido[2,1-c][1,4]oxazines. Synthesis, stereochemistry, and central nervous system pharmacological actions” (J Med Chem, 1978).

Active and inactive are the calls of the source. The rule behind the calls is not given here.

Data set [1] deals with Mus musculus. In words: Reduction in spontaneous locomotor activity in mouse at 40 mg/kg, ip measured for 30 mins. The data set is classed as functional, organism-based. The arrangement: dose 40 mg/kg.
Data set [2] relates to Mus musculus. In words: Reduction in spontaneous locomotor activity in mouse at 20 mg/kg, ip measured for 30 mins relative to control. The data set is classed as functional, organism-based. Also on record: dose 20 mg/kg.
Data set [3] deals with Mus musculus. In words: Anticonvulsant activity in mouse assessed as protection against maximal electroshock-induced seizures at <= 300 mg/kg, ip. It is filed as functional, organism-based. The arrangement: dose 300 mg/kg. A general note: The maximal electroshock test induces tonic seizures with an electrical stimulus.
Data set [4] deals with Mus musculus. In words: Anticonvulsant activity in mouse assessed as protection against subcutaneous metrazol-induced seizures at <= 300 mg/kg, ip. It is filed as functional, organism-based. The arrangement: dose 300 mg/kg.
Data set [5] relates to Mus musculus. In words: Reduction in spontaneous locomotor activity in mouse at 5 mg/kg, ip measured for 30 mins relative to control. The data set is classed as functional. The arrangement: scale not given: the % may be the effect or the level left. As to conditions: route intraperitoneal.
In data set [6] the test system is Mus musculus. In words: Anticonvulsant activity in ip dosed mouse assessed as protection against maximal electroshock-induced seizures measured as lowest dose required for activity. The data set is classed as functional. As to conditions: read-out: MED.
The test system of data set [7] is Mus musculus. In words: Anticonvulsant activity in ip dosed mouse assessed as protection against subcutaneous metrazol-induced seizures. It is filed as functional. Particulars: read-out: MED.
Data set [8] can be described thus: Neurotoxicity in ip dosed mouse by rotarod test. As to conditions: in vivo. It is filed as toxicity, organism-based. A general note: Falling from the rotarod earlier than controls is read as motor impairment.
Data set [9] deals with Mus musculus. In words: Anticonvulsant activity in ip dosed mouse assessed as time to reach peak effect. The data set is classed as functional.
Data set [10] relates to Mus musculus. In words: Neurotoxicity in ip dosed mouse assessed as time to reach peak effect by rotarod test. It is filed as toxicity, organism-based. As to conditions: in vivo.
For data set [11], the system named is Mus musculus. In words: Anticonvulsant activity in ip dosed mouse assessed as protection against maximal electroshock-induced seizures. The data set is classed as functional.
Data set [12] can be described thus: Protective index, ratio of TD50 for neurotoxicity in ip dosed mouse to ED50 for anticonvulsant activity in ip dosed mouse. It is filed as toxicity, organism-based. Particulars: in vivo, read-out: Ratio TD50/ED50.
Data set [13] deals with Rattus norvegicus. In words: Anorexic activity in ip dosed Sprague-Dawley rat assessed as dose required to reduce food intake by 50%. It is filed as functional.
Data set [14] relates to Rattus norvegicus. In words: Anorexic activity in Sprague-Dawley rat assessed as reduction in food intake at 5 to 20 mmol/kg, ip. It is filed as functional, organism-based.
Data set [15] relates to Rattus norvegicus. In words: Anorexic activity in Sprague-Dawley rat assessed as reduction in food intake at 10 to 40 mmol/kg, ip. The data set is classed as functional, organism-based.
The subject of data set [16] is Rattus norvegicus. In words: Toxicity in Sprague-Dawley rat assessed as lethality at 20 to 40 mg/kg, ip. Particulars: in vivo. It is filed as organism-based. The arrangement: dose 20-40 mg/kg, route intraperitoneal.
In data set [17] the test system is Rattus norvegicus. In words: Anorexic activity in Sprague-Dawley rat assessed as reduction in food intake at […], ip relative to control. It is filed as functional. The arrangement: scale not given: the % may be the effect or the level left.
For data set [18], the system named is Mus musculus. In words: Stimulation of spontaneous locomotor activity in mouse at 20 mg/kg, ip measured for 30 mins relative to control. The data set is classed as functional.
A short description of data set [19]: Toxicity in ip dosed mouse assessed as lethality. Particulars: in vivo. The data set is classed as organism-based.

Regarding `Oc1cccc(C2CN3CCCCC3CO2)c1` (configuration not stated), the result in data set [1] was inactive. Besides, the result in data set [2] was Active.
As for `COc1ccc(C2(O)CN3CCCCC3CO2)cc1` (configuration not stated), the result in data set [1] was Active. In addition, the result in data set [3] and in data set [4] was inactive.
As to `CN(C)CCCN1c2ccccc2Sc2ccc(Cl)cc21.Cl` [CHLORPROMAZINE HYDROCHLORIDE], the Activity in data set [5] is reported as 83.6%.
In the case of `Cc1ccc(C2(O)CN3CCCCC3CO2)cc1.Cl` (configuration not stated), the outcome in data set [1] was Active. In addition, the minimal effective dose in data set [6] stood at 100 mg/kg. Also, in data set [4], the result was inactive.
For the compound `O=[N+]([O-])c1ccc(C2(O)CN3CCCCC3CO2)cc1` (configuration not stated), in data set [1], the result was inactive.
On to `Cl.OC1(c2ccccc2)CN2CCCCC2CO1` (configuration not stated), for which, in [1], the result was Active. Moreover, the minimal effective dose in [6] was found to be 100 mg/kg. For the same compound, the outcome in data set [4] was inactive.
Take `COc1cc(C2(O)CN3CCCCC3CO2)cc(OC)c1OC.Cl` (configuration not stated): in data set [1], the result was Active. For the same compound, the result in data set [3] was inactive. In addition, the minimal effective dose in data set [7] was found to be 300 mg/kg.
For the compound `CC(=O)Oc1cccc(C2CN3CCCCC3CO2)c1` (configuration not stated), in data set [1], the result was inactive.
Consider `Cl.FC(F)(F)c1ccc(C2CN3CCCCC3CO2)cc1` (configuration not stated), for which the result in data set [1] was Active. Besides, the minimal effective dose in data set [6] amounted to 30 mg/kg; in data set [7] it was 300 mg/kg. In data set [8], this compound displayed a TD50 of 408000 µmol/kg. For the same compound, the Time in data set [9] and in [10] was 0.5 h in each case.
Consider `Cl.OC1(c2cccc(C(F)(F)F)c2)CN2CCCCC2CO1` (configuration not stated), for which the outcome in data set [1] and in data set [14] was Active. Also, the minimal effective dose in data set [6] is 30 mg/kg. Besides, in data set [4], the outcome was inactive. Besides, the ED50 in [11] was 78700 µmol/kg. Besides, the TD50 in data set [8] amounted to 218000 µmol/kg. In addition, the selectivity ratio in data set [12] came out at 2.77. Moreover, the Activity in [13] worked out at 29.6 mmol/kg. Also, the Time in data set [9] and in [10] was 0.5 h each time.
For `OC1(c2ccc(Br)cc2)CN2CCCCC2CO1` (configuration not stated), the result in data set [1] was Active.
Regarding `CC(=O)Oc1cccc(C2(O)CN3CCCCC3CO2)c1` (configuration not stated), the result in data set [1] was inactive.
With `Cc1ccc(C2CN3CCCCC3CO2)cc1` (configuration not stated), the result in [1] was Active. In addition, the result in [3] and in [4] was inactive.
For the compound `COc1cccc(C2(O)CN3CCCCC3CO2)c1.Cl` (configuration not stated), in data set [1], the outcome was Active. For the same compound, in [6], the minimal effective dose was 100 mg/kg. Moreover, the outcome in [4] was inactive.
`COc1cccc(C2CN3CCCCC3CO2)c1` (configuration not stated): the result in data set [1] was Active.
`OC1(c2ccc(Cl)cc2)CN2CCCCC2CO1` (configuration not stated): the outcome in data set [1] was Active. The outcome in data set [15] was inactive.
Turning to `Cl.Clc1ccc(C2CN3CCCCC3CO2)cc1` (configuration not stated), the result in data set [1] and in data set [15] was Active. Besides, the Activity result is on record as “Toxic” in [16] and 40% in data set [17].
For `Cl.OC1(c2ccccc2C(F)(F)F)CN2CCCCC2CO1` (configuration not stated), the result in [1] was Active. Also, in data set [6], the minimal effective dose came to 30 mg/kg. In data set [4], the outcome was inactive. The compound also showed a TD50 in [8] of 547000 µmol/kg. For the same compound, the Time in data set [9] and in data set [10] was 0.5 h each time.
With `CC(=O)Nc1ccc(C2CN3CCCCC3CO2)cc1` (configuration not stated), in data set [1], the result was Active.
With `Cl.OC1(c2ccc(F)cc2)CN2CCCCC2CO1` (configuration not stated), the outcome in [1] was Active. In addition, in data set [6], the minimal effective dose amounted to 100 mg/kg. Also, in [4], the result was inactive.
`CCC1(c2ccccc2)C(=O)N=C([O-])NC1=O.[Na+]` (configuration not stated) [PHENOBARBITAL SODIUM] yielded an Activity in data set [18] (route intraperitoneal) of 215%. For the same compound, in data set [11], the ED50 is 85700 µmol/kg. In [8], this compound displayed a TD50 of 333000 µmol/kg. For the same compound, the selectivity ratio in [12] was 3.88.
On to `Cl.OC1(c2ccc(C(F)(F)F)cc2)CN2CCCCC2CO1` (configuration not stated), for which the result in data set [1] and in data set [18] was Active. The minimal effective dose in data set [6] turned out to be 100 mg/kg. The result in data set [4] was inactive. Besides, the LD50 in data set [19] is 468000 µmol/kg. The Time in data set [9] and in data set [10] was 0.5 h each time.
In the case of `Cl.c1ccc(C2CN3CCCCC3CO2)cc1` (configuration not stated), in data set [1], the result was Active. Also, the minimal effective dose in data set [6] was determined as 100 mg/kg. Also, the outcome in [4] and in [15] was inactive. Besides, the Activity in [13] is 108.4 mmol/kg.
Regarding `Fc1ccc(C2CN3CCCCC3CO2)cc1` (configuration not stated), in data set [1], the outcome was Active. In addition, the result in data set [3] and in [4] was inactive.
Take `COc1ccc(C2(O)CN3CCCCC3CO2)cc1OC.Cl` (configuration not stated): the outcome in [1] was Active. In [3], the outcome was inactive. In addition, the minimal effective dose in data set [7] was determined as 100 mg/kg.
Consider `Cl.FC(F)(F)c1ccccc1C1CN2CCCCC2CO1` (configuration not stated), for which the result in data set [1] was Active. Further, the minimal effective dose in [6] amounted to 30 mg/kg; in [7] it was 300 mg/kg. Besides, the TD50 in data set [8] amounted to 716000 µmol/kg. The Time in data set [9] and in [10] was 0.5 h throughout.
With `COc1cc(C2CN3CCCCC3CO2)cc(OC)c1OC` (configuration not stated), the outcome in data set [1] was Active.
`Cl.FC(F)(F)c1cccc(C2CN3CCCCC3CO2)c1` (configuration not stated): the outcome in [1] and in data set [15] was Active. Further, in [6], the minimal effective dose stood at 30 mg/kg. In addition, the outcome in data set [4] was inactive. For the same compound, the 50% effective dose (ED50) in data set [11] was found to be 84600 µmol/kg. In data set [8], the TD50 came to 263000 µmol/kg. For the same compound, the selectivity ratio in data set [12] was determined as 3.11. Further, in data set [13], the Activity was 55.9 mmol/kg. The Time in data set [9] and in [10] was 0.5 h each time.
For the compound `COc1ccc(C2CN3CCCCC3CO2)cc1OC` (configuration not stated), the result in [1] was Active.
For `COc1ccc(C2CN3CCCCC3CO2)cc1` (configuration not stated), in [1], the outcome was Active.
Take `Oc1ccc(C2CN3CCCCC3CO2)cc1` (configuration not stated): the outcome in data set [1] was Active.
`CCNC(C)Cc1cccc(C(F)(F)F)c1.Cl` (configuration not stated) [FENFLURAMINE HYDROCHLORIDE]: the Activity in data set [13] was determined as 16.8 mmol/kg.
Turning to `Brc1ccc(C2CN3CCCCC3CO2)cc1` (configuration not stated), the result in [1] was Active.

By TD50 is commonly meant the dose at which the toxic effect under study appears in half of the subjects. By ED50 is commonly meant the dose at which the effect has come halfway, by size or by number of responders. The term LD50 denotes the dose at which mortality reaches 50%.
